Data from patent US20250171518A1, “METHODS FOR PREPARING CELLS FOR ADOPTIVE T CELL THERAPY” (City of Hope, priority 2015, published 2025).

Tested on: CD19 CAR T cells from bulk T cells (PBMC), TCM, naïve/memory T cells
Test: Generation of memory CD19 CAR T cells from different T cell subsets
Format: cell-based, human
Excerpt: FIGS. 6A-6B: Akt inhibition promotes the generation of memory CD19 CAR T cells from different T cell subsets. […] Resultant CD19 CAR T cells were stained with biotinylated Erbitux (cetuximab), followed by streptavidin-PE for CAR detection and antibodies against CD62L. Percentages of CAR+CD62L+ cells are depicted on the basis of the gating of isotype-stained cells. (B) Percentages of CD62L+CD28+ T cells after gating on CAR+CD8+ from six lines of CD19 CAR T cells derived from two different donors are presented.
Resultant CD19CAR T cells were stained with biotinylated Erbitux (cetuximab), followed by streptavidin-PE for CAR detection and antibodies against CD62L. Cells expressing CD62 represent TCM cells or TSCM cells.
Samples from two donors were used to prepare PBMC, TCM, and TN/TCM/TSCM cell populations.

In the case of `O=c1[nH]c2ccccc2n1C1CCN(Cc2ccc(-c3nc4cc5[nH]cnc5cc4nc3-c3ccccc3)cc2)CC1` [Akt inhibitor VIII, 1,3-dihydro-1-[1-[[4-(6-phenyl-1H-imidazo[4,5-g]quinoxalin-7-yl)phenyl]methyl]-4-piperidinyl]-2H-benzimidazol-2-one], the “percentage of CD62L+ expressing CAR T cells” value (1 μM Akt inhibitor VIII, 17-21 days, bulk T cells, TCM cells or naïve/memory T cells, FIG. 6A) is reported as “increases the percentage of CD62L+ expressing CAR T cells” and the “number of CD62L+/CD28+/CAR+ T cells” value (six cell populations from two donors, 17-21 days with or without Akt inhibitor VIII, FIG. 6B) is reported as “increased the number of CD62L+/CD28+/CAR+ T cells”.
